# Data published in patent US8802597B2, “Herbicidal pyrimidines” (E I du Pont de Nemours and Company, priority 2003, dated 2014).
# Read-outs that look alike come from different tables or passages of the source.
# Legend:
# Format in all cases: in vivo
# [1] = system: lambsquarters (Chenopodium album); test: Test B pre/postemergence; details: Chenopodium album; for pest or weed control at 125 g/ha: 125 g ai/ha; for pest or weed control at 500 g/ha: 500 g ai/ha
# Outline: (§1)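 Greenhouse whole-plant test; surfactant-containing non-phytotoxic solvent formulation; pre- and postemergence applications made simultaneously; post plants 2–18 cm, 1- to 4-leaf; visual scoring at 13–15 days on 0–100 scale relative to controls.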
# [2] = system: cocklebur (Xanthium strumarium); test: Test B pre/postemergence; details: Xanthium strumarium; for pest or weed control at 125 g/ha: 125 g ai/ha; for pest or weed control at 500 g/ha: 500 g ai/ha
# Outline: as §1
# [3] = system: crabgrass (Digitaria sanguinalis); test: Test B pre/postemergence; details: Digitaria sanguinalis; for pest or weed control at 125 g/ha: 125 g ai/ha; for pest or weed control at 500 g/ha: 500 g ai/ha
# Outline: as §1
# [4] = system: corn (Zea mays); test: Test B pre/postemergence; details: Zea mays
# Outline: as §1
# [5] = system: giant foxtail (Setaria faberii); test: Test B pre/postemergence; details: Setaria faberi; for pest or weed control at 125 g/ha: 125 g ai/ha; for pest or weed control at 500 g/ha: 500 g ai/ha
# Outline: as §1
# [6] = system: Surinam grass (Brachiaria decumbens); test: Test B pre/postemergence; details: Urochloa decumbens; for pest or weed control at 125 g/ha: 125 g ai/ha; for pest or weed control at 500 g/ha: 500 g ai/ha
# Outline: as §1
# [7] = system: morningglory (Ipomoea coccinea); test: Test B pre/postemergence; details: Ipomoea; for pest or weed control at 125 g/ha: 125 g ai/ha; for pest or weed control at 500 g/ha: 500 g ai/ha
# Outline: as §1
# [8] = system: wheat (Triticum aestivum); test: Test B pre/postemergence; details: Triticum aestivum; for plant injury at 125 g/ha: 125 g ai/ha; for plant injury at 500 g/ha: 500 g ai/ha
# Outline: as §1
# [9] = system: velvetleaf (Abutilon theophrasti); test: Test B pre/postemergence; details: Abutilon theophrasti; for pest or weed control at 125 g/ha: 125 g ai/ha; for pest or weed control at 500 g/ha: 500 g ai/ha
# Outline: as §1
# [10] = system: barnyardgrass (Echinochloa crus-galli); test: Test B pre/postemergence; details: Echinochloa crus-galli; for pest or weed control at 125 g/ha: 125 g ai/ha; for pest or weed control at 500 g/ha: 500 g ai/ha
# Outline: as §1
# [11] = system: pigweed (Amaranthus retroflexus); test: Test B pre/postemergence; details: Amaranthus retroflexus; for pest or weed control at 125 g/ha: 125 g ai/ha; for pest or weed control at 500 g/ha: 500 g ai/ha
# Outline: as §1
# [12] = system: umbrella sedge (Cyperus difformis); test: Test B flooded paddy test; details: Cyperus difformis, Flood, 1000 g ai/ha; scale 0 to 100; read-out: Plant response rating, Sedge, Umbrella
# Outline: (§2)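 Visual injury scoring (0 = no effect, 100 = complete control) versus controls made 13 to 15 days after treatment in the greenhouse. Test species were grown in flooded paddy to the 2-leaf stage: rice, barnyardgrass, umbrella sedge, duck salad.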
# [13] = system: duck salad (Heteranthera limosa); test: Test B flooded paddy test; details: Heteranthera limosa, Flood, 1000 g ai/ha; scale 0 to 100; read-out: Plant response rating, Ducksalad
# Outline: as §2
# [14] = system: rice (Oryza sativa); test: Test B flooded paddy test; details: Oryza sativa, Flood, 1000 g ai/ha; scale 0 to 100; read-out: Plant response rating, Rice
# Outline: as §2
# [15] = system: barnyardgrass (Echinochloa crus-galli); test: Test B flooded paddy test; details: Echinochloa crus-galli, Flood, 1000 g ai/ha; scale 0 (no effect) to 100 (complete control); read-out: Plant response rating, Barnyardgrass
# Outline: as §2
# [16] = system: wild oat (Avena fatua); test: Test B postemergence; details: Avena fatua, post-emergence
# Outline: as §1
# [17] = system: blackgrass (Alopecurus myosuroides); test: Test B postemergence; details: Alopecurus myosuroides, post-emergence
# Outline: as §1
smiles,measurement,setting,value
COC(=O)c1nc(-c2ccccc2)nc(N)c1Br [Compound 23],pest or weed control at 125 g/ha,"[1]; post-emergence, Postemergence, scale 0 to 100 (0 no effect, 100 complete control), read-out: Lambsquarters plant response rating",70%
same,pest or weed control at 500 g/ha,"[1]; post-emergence, Postemergence, scale 0 to 100, read-out: Plant response rating, Lambsquarters",80%
same,pest or weed control at 125 g/ha,"[1]; pre-emergence, Preemergence, scale 0 to 100 (0 no effect, 100 complete control), read-out: Plant response rating, Lambsquarters",0%
same,pest or weed control at 500 g/ha,"[1]; pre-emergence, Preemergence, scale 0 to 100 (0 no effect, 100 complete control), read-out: Lambsquarters plant response rating",30%
same,pest or weed control at 125 g/ha,"[2]; post-emergence, Postemergence, scale 0 to 100 (0 no effect, 100 complete control), read-out: Cocklebur plant response rating",30%
same,pest or weed control at 500 g/ha,"[2]; post-emergence, Postemergence, scale 0 to 100, read-out: Plant response rating, Cocklebur",90%
same,pest or weed control at 125 g/ha,"[2]; pre-emergence, Preemergence, scale 0 to 100 (0 no effect, 100 complete control), read-out: Plant response rating, Cocklebur",0%
same,pest or weed control at 500 g/ha,"[2]; pre-emergence, Preemergence, scale 0 to 100 (0 no effect, 100 complete control), read-out: Cocklebur plant response rating",10%
same,pest or weed control at 125 g/ha,"[3]; post-emergence, Postemergence, scale 0 to 100 (0 no effect, 100 complete control), read-out: Crabgrass plant response rating",0%
same,pest or weed control at 500 g/ha,"[3]; post-emergence, Postemergence, scale 0 to 100, read-out: Plant response rating, Crabgrass",0%
same,pest or weed control at 125 g/ha,"[3]; pre-emergence, Preemergence, scale 0 to 100 (0 no effect, 100 complete control), read-out: Plant response rating, Crabgrass",0%
same,pest or weed control at 500 g/ha,"[3]; pre-emergence, Preemergence, scale 0 to 100 (0 no effect, 100 complete control), read-out: Crabgrass plant response rating",0%
same,plant injury at 125 g/ha,"[4]; post-emergence, Postemergence, 125 g ai/ha, scale 0 to 100 (0 no effect, 100 complete control), read-out: Corn plant response rating",0%
same,"Corn plant response rating (crop injury, 0 = no effect, 100 = complete kill) at 500 g/ha","[4]; post-emergence, Postemergence, 500 g ai/ha, scale 0 to 100",0%
same,"Corn plant response rating (crop injury, 0 = no effect, 100 = complete kill) at 125 g/ha","[4]; pre-emergence, Preemergence, 125 g ai/ha, scale 0 to 100 (0 no effect, 100 complete control)",0%
same,plant injury at 500 g/ha,"[4]; pre-emergence, Preemergence, 500 g ai/ha, scale 0 to 100 (0 no effect, 100 complete control), read-out: Corn plant response rating",0%
same,pest or weed control at 125 g/ha,"[5]; post-emergence, Postemergence, scale 0 to 100 (0 no effect, 100 complete control), read-out: Foxtail, Giant plant response rating",0%
same,pest or weed control at 500 g/ha,"[5]; post-emergence, Postemergence, scale 0 to 100, read-out: Plant response rating, Foxtail, Giant",10%
same,pest or weed control at 125 g/ha,"[5]; pre-emergence, Preemergence, scale 0 to 100 (0 no effect, 100 complete control), read-out: Plant response rating, Foxtail, Giant",0%
same,pest or weed control at 500 g/ha,"[5]; pre-emergence, Preemergence, scale 0 to 100 (0 no effect, 100 complete control), read-out: Foxtail, Giant plant response rating",0%
same,pest or weed control at 125 g/ha,"[6]; post-emergence, Postemergence, scale 0 to 100 (0 no effect, 100 complete control), read-out: Surinam Grass plant response rating",0%
same,pest or weed control at 500 g/ha,"[6]; post-emergence, Postemergence, scale 0 to 100, read-out: Plant response rating, Surinam Grass",10%
same,pest or weed control at 125 g/ha,"[6]; pre-emergence, Preemergence, scale 0 to 100 (0 no effect, 100 complete control), read-out: Plant response rating, Surinam Grass",0%
same,pest or weed control at 500 g/ha,"[6]; pre-emergence, Preemergence, scale 0 to 100 (0 no effect, 100 complete control), read-out: Surinam Grass plant response rating",0%
same,pest or weed control at 125 g/ha,"[7]; post-emergence, Postemergence, scale 0 to 100 (0 no effect, 100 complete control), read-out: Morningglory plant response rating",40%
same,pest or weed control at 500 g/ha,"[7]; post-emergence, Postemergence, scale 0 to 100, read-out: Plant response rating, Morningglory",70%
same,pest or weed control at 125 g/ha,"[7]; pre-emergence, Preemergence, scale 0 to 100 (0 no effect, 100 complete control), read-out: Plant response rating, Morningglory",0%
same,pest or weed control at 500 g/ha,"[7]; pre-emergence, Preemergence, scale 0 to 100 (0 no effect, 100 complete control), read-out: Morningglory plant response rating",10%
same,plant injury at 125 g/ha,"[8]; post-emergence, Postemergence, scale 0 to 100 (0 no effect, 100 complete control), read-out: Wheat plant response rating",0%
same,plant injury at 500 g/ha,"[8]; post-emergence, Postemergence, scale 0 to 100, read-out: Plant response rating, Wheat",20%
same,plant injury at 125 g/ha,"[8]; pre-emergence, Preemergence, scale 0 to 100 (0 no effect, 100 complete control), read-out: Plant response rating, Wheat",0%
same,plant injury at 500 g/ha,"[8]; pre-emergence, Preemergence, scale 0 to 100 (0 no effect, 100 complete control), read-out: Wheat plant response rating",0%
same,pest or weed control at 125 g/ha,"[9]; post-emergence, Postemergence, scale 0 to 100 (0 no effect, 100 complete control), read-out: Velvetleaf plant response rating",40%
same,pest or weed control at 500 g/ha,"[9]; post-emergence, Postemergence, scale 0 to 100, read-out: Plant response rating, Velvetleaf",70%
same,pest or weed control at 125 g/ha,"[9]; pre-emergence, Preemergence, scale 0 to 100 (0 no effect, 100 complete control), read-out: Plant response rating, Velvetleaf",0%
same,pest or weed control at 500 g/ha,"[9]; pre-emergence, Preemergence, scale 0 to 100 (0 no effect, 100 complete control), read-out: Velvetleaf plant response rating",20%
same,pest or weed control at 125 g/ha,"[10]; post-emergence, Postemergence, scale 0 to 100 (0 no effect, 100 complete control), read-out: Barnyardgrass plant response rating",0%
same,pest or weed control at 500 g/ha,"[10]; post-emergence, Postemergence, scale 0 to 100, read-out: Plant response rating, Barnyardgrass",0%
same,pest or weed control at 125 g/ha,"[10]; pre-emergence, Preemergence, scale 0 to 100 (0 no effect, 100 complete control), read-out: Plant response rating, Barnyardgrass",0%
same,pest or weed control at 500 g/ha,"[10]; pre-emergence, Preemergence, scale 0 to 100 (0 no effect, 100 complete control), read-out: Barnyardgrass plant response rating",0%
same,pest or weed control at 125 g/ha,"[11]; post-emergence, Postemergence, scale 0 to 100 (0 no effect, 100 complete control), read-out: Pigweed plant response rating",30%
same,pest or weed control at 500 g/ha,"[11]; post-emergence, Postemergence, scale 0 to 100, read-out: Plant response rating, Pigweed",70%
same,pest or weed control at 125 g/ha,"[11]; pre-emergence, Preemergence, scale 0 to 100 (0 no effect, 100 complete control), read-out: Plant response rating, Pigweed",0%
same,pest or weed control at 500 g/ha,"[11]; pre-emergence, Preemergence, scale 0 to 100 (0 no effect, 100 complete control), read-out: Pigweed plant response rating",20%
same,pest or weed control at 1000 g/ha,[12],0%
same,pest or weed control at 1000 g/ha,[13],30%
same,plant injury at 1000 g/ha,[14],0%
same,pest or weed control at 1000 g/ha,[15],0%
same,pest or weed control at 125 g/ha,"[16]; 125 g ai/ha, scale 0 to 100 (0 no effect, 100 complete control), read-out: Oat, Wild plant response rating",10%
same,pest or weed control at 500 g/ha,"[16]; 500 g ai/ha, scale 0 to 100, read-out: Plant response rating, Oat, Wild",10%
same,pest or weed control at 125 g/ha,"[17]; 125 g ai/ha, scale 0 to 100 (0 no effect, 100 complete control), read-out: Blackgrass plant response rating",0%
same,pest or weed control at 500 g/ha,"[17]; 500 g ai/ha, scale 0 to 100, read-out: Plant response rating, Blackgrass",10%
